{"source": "patent US20120225093A1", "about": "“Abrogating HIV-1 Infection via Drug-Induced Reactivation of Apoptosis” (UNIVERSITY OF MEDICINE AND DENTISTRY OF NEW JERSEY, priority 2010, published 2012)", "key": {"H9-HIV cells": {"tested_on": "H9-HIV cells", "assay": "89-kDa PARP fragment by flow cytometry in H9-HIV cells", "format": "cell-based", "details": "30 μM CPX, 24 hr", "description": "(§1) Intracellular antigens were determined, as geometric means of fluorescence, by flow cytometric analysis using a BD FACSCalibur™ and its BD FACStation System™ (Becton Dickinson; San Jose, Calif.). Intracellular antigens were stained according to the instrument producer's instructions. Anti-HIV-1 Tat antibody was from Abcam Inc. (Cambridge, Mass.); anti-HIV-1 Vpr from Santa Cruz Biotechnology (Santa Cruz, Calif.); anti-HIV-1 Rev from Advanced Biotechnologies Inc. (Columbia, Md.); anti-HIV-1 p24 (KC57) from Beckman Coulter, Miami, Fla.; monoclonal C92-605 anti-human caspase-3 (active form) from Pharmingen (BD Biosciences, San Diego, Calif.); monoclonal F21-852 anti-human poly (ADP-ribose) polymerase (caspase-cleaved 89-kDa fragment); and monoclonal 6C8 anti-human Bcl-2 from Becton Dickinson (BD Biosciences; San Diego, Calif.).\nTo determine whether the differential effects of the drugs extend into late apoptosis, PARP fragmentation in H9 and H9-HIV cells was measured. CPX caused an ˜8-fold increase in H9-HIV cells positive for 89-kDa PARP, compared to a ˜2 fold increase in H9 cells (FIG. 9A). By 24 hr, twice as many cells stained positive for 89-kDa PARP in the infected cultures as in uninfected cultures (27% compared to 14%; FIG. 9B). […] It is concluded that the retroviral suppression of initiation and execution of apoptosis is reversed by the drugs and transformed into enhanced susceptibility of HIV-infected cells to apoptosis."}, "uninfected H9 cells": {"tested_on": "uninfected H9 cells", "assay": "89-kDa PARP fragment by flow cytometry in uninfected H9 cells", "format": "cell-based", "details": "30 μM CPX, 24 hr", "description": "as §1\nTo determine whether the differential effects of the drugs extend into late apoptosis, PARP fragmentation in H9 and H9-HIV cells was measured. CPX caused an ˜8-fold increase in H9-HIV cells positive for 89-kDa PARP, compared to a ˜2 fold increase in H9 cells (FIG. 9A). By 24 hr, twice as many cells stained positive for 89-kDa PARP in the infected cultures as in uninfected cultures (27% compared to 14%; FIG. 9B). […]"}, "HIV-infected PBMCs": {"tested_on": "HIV-infected PBMCs", "assay": "TUNEL apoptosis in HIV-1 exposed PBMC cultures", "format": "cell-based, human", "details": "CPX 30 μM", "description": "(§2) Uninfected PBMCs were co-incubated with infected PBMC stock in 24-well microplates at 2 ml/well Medium B, at a 10:1 ratio of uninfected-to-infected cells, and a total cell number of 1×10^6. Cultures were maintained and assayed for 6 consecutive days. CPX or Agent P2 was added at the time of inoculation or 12 hr later. Leaving the cell layer undisturbed, half the medium in each well was replenished every day, with concurrent adjustment of compound concentration. On each day during the 6-day experiments, a set of wells was harvested: the cells were processed for determination of viability and apoptosis, and the cell-free supernatants were stored at −80° C. for p24 and viral RNA measurements. […]\n(§3) The potential across the mitochondrial membrane of live cells was determined flow-cytometrically with the lipophilic cationic fluorochrome JC-1 (5,5′,6,6′-tetrachloro-1,1′,3,3′-tetraethylbenzimidazolcarbocyanine iodide) immediately after sample harvest (BD™ Mitoscreen Kit, BD Biosciences; San Diego, Calif.). DNA fragmentation was quantified flow-cytometrically, using a TUNEL (terminal deoxynucleotide transferase dUTP nick end-labeling) assay (APO-BRDU™; Phoenix Flow Systems; San Diego, Calif.) and a dual-color assay for annexin V binding and 7-AAD exclusion (Annexin V-PE 7-AAD Apoptosis Detection Kit I™; BD Biosciences Pharmingen, San Jose, Calif.). […]"}, "uninfected PBMCs": {"tested_on": "uninfected PBMCs", "assay": "TUNEL apoptosis in uninfected PBMC cultures", "format": "cell-based, human", "details": "CPX 30 μM", "description": "as §2, §3"}, "IFN-γ": {"tested_on": "IFN-γ", "assay": "IFN-γ secretion by PBMC cultures (cytometric bead array)", "format": "cell-based, human", "details": "CPX added at inoculation or 12 hr later; Phase I", "description": "(§4) Uninfected PBMCs were co-incubated with infected PBMC stock in 24-well microplates at 2 ml/well Medium B, at a 10:1 ratio of uninfected-to-infected cells, and a total cell number of 1×10^6. Cultures were maintained and assayed for 6 consecutive days. CPX or Agent P2 was added at the time of inoculation or 12 hr later. Leaving the cell layer undisturbed, half the medium in each well was replenished every day, with concurrent adjustment of compound concentration. On each day during the 6-day experiments, a set of wells was harvested: the cells were processed for determination of viability and apoptosis, and the cell-free supernatants were stored at −80° C. for p24 and viral RNA measurements. Experiments were performed at least in duplicate and repeated at least twice.\n(§5) p24 core antigen in the supernatant was quantified by ELISA (Retrotek HIV-1 p24™; ZeptoMetrix Corp.; Buffalo, N.Y.). HIV-1 RNA copy number in the supernatant was determined with a PCR-based and FDA-approved assay (Amplicor HIV-1 Monitor™; Roche Diagnostics Corp.; Indianapolis, Ind.). IFN-γ and IL-10 in the supernatant were determined by cytometric bead array (Human Th1/Th2 Cytokine Kit II™; BD Biosciences Pharmingen, San Jose, Calif.).\n(§6) To further assess the cellular effects of CPX, the secretion of interferon (IFN)-γ and interleukin (IL)-10 was measured. […]"}, "IL-10": {"tested_on": "IL-10", "assay": "IL-10 secretion by PBMC cultures (cytometric bead array)", "format": "cell-based, human", "details": "CPX added at inoculation or 12 hr later; Phase I", "description": "as §4, §5, §6"}, "[1]": {"details": "in vivo; cited from earlier work"}}}
{"smiles": "Cc1cc(C2CCCCC2)n(O)c(=O)c1", "note": "[CPX, 6-cyclohexyl-1-hydroxy-4-methylpyridin-2[1H]-one]", "values": [{"measurement": "89-kDa PARP fluorescence intensity, infected versus uninfected", "setting": "H9-HIV cells", "value": "approximately one order of magnitude higher"}, {"measurement": "cells positive for 89-kDa PARP", "setting": "H9-HIV cells", "value": 27, "unit": "%"}, {"measurement": "increase in cells positive for 89-kDa PARP", "setting": "H9-HIV cells; relative to untreated", "value": "~8", "unit": "fold"}, {"measurement": "cells positive for 89-kDa PARP", "setting": "uninfected H9 cells", "value": 14, "unit": "%"}, {"measurement": "increase in cells positive for 89-kDa PARP", "setting": "uninfected H9 cells; relative to untreated", "value": "~2", "unit": "fold"}, {"measurement": "apoptotic (TUNEL-positive) cells", "setting": "HIV-infected PBMCs; 144 hr after inoculation", "value": "71.8% (±8.8%)"}, {"measurement": "increase in proportion of TUNEL-positive PBMCs", "setting": "HIV-infected PBMCs; HIV-infected cultures", "value": "~10", "unit": "fold"}, {"measurement": "apoptotic (TUNEL-positive) cells", "setting": "uninfected PBMCs; 144 hr", "value": "24.1% (±3.2%)"}, {"measurement": "change in proportion of TUNEL-positive PBMCs", "setting": "uninfected PBMCs; uninfected cultures", "value": "roughly doubled"}, {"measurement": "HIV-induced rise of IFN-γ", "setting": "IFN-γ", "value": "abolished the HIV-induced cytokine boost"}, {"measurement": "HIV-induced rise of IL-10", "setting": "IL-10", "value": "abolished the HIV-induced cytokine boost"}, {"measurement": "tolerability", "setting": "[1]", "value": "well tolerated"}]}
